# Assays:
# Test in all cases: CCK-8 cell viability assay, anti-tumor model with wireless self-powered photodynamic tablet
# Type in all cases: cell-based
# Details in all cases: 10 μM IKE, PDT groups: 8 μM Ce6 6 h, 20 min 660 nm light, CCK-8 after 24 hours
# [1] = system: human lung cancer cells A549
# Procedure: (§1) This embodiment provides a comprehensive account of constructing an anti-tumor model utilizing the wireless self-powered photodynamic tablet (8), using human lung cancer cells A549 and H1299, as well as mouse lung cancer cells LLC. The experimental procedure involved seeding 8,000 cells per well in a 96-well plate and allowing them to adhere for 24 hours. The cells were divided into four groups: control group (Ctrl), ferroptosis inducer (IKE) group, photodynamic therapy (PDT) group, and combined treatment of IKE and PDT (IKE+PDT) group. The culture medium was then replaced accordingly: the PDT and IKE+PDT groups received 100 μL of serum-free medium containing 8 μM photosensitizer Ce6, while the Ctrl and IKE groups were replaced with serum-free medium. Following this, the cells were incubated for 6 hours under light avoidance conditions (i.e., in the substantial absence of visible light). Subsequently, the culture medium was replaced again: the IKE and IKE+PDT groups received fresh complete medium containing 10 μM IKE, while the Ctrl and PDT groups received complete medium. The PDT and IKE+PDT groups underwent 20 minutes of photodynamic therapy (e.g., with 660 nm light from the photodynamic tablet). After 24 hours of incubation, a cell viability assay was conducted using the CCK-8 reagent kit. Each experiment was repeated three times, and the data were subjected to statistical analysis.
# [2] = system: human lung cancer cells H1299
# Procedure: as §1
# [3] = system: mouse lung cancer cells LLC
# Procedure: as §1
smiles,measurement,setting,value
CC(C)Oc1ccc(C(=O)Cn2ccnc2)cc1-n1c(CN2CCN(C(=O)COc3ccc(Cl)cc3)CC2)nc2ccccc2c1=O [IKE],decrease in cell viability compared to the control group,[1],22.4%
same,decrease in cell viability compared to the control group,[2],26.0%
same,decrease in cell viability compared to the control group,[3],30.3%
